What was measured:
[1] = molecular target: GDP-bound NRAS wild-type protein (Homo sapiens, UniProt P01111); test: Binding to NRAS by surface plasmon resonance (SPR), Single Cycle Kinetics; conditions: KD ratio NRAS/KRAS, SPR, GDP-bound wild-type proteins
[2] = molecular target: GDP-bound HRAS wild-type protein (Homo sapiens, UniProt P01112); test: Binding to HRAS by surface plasmon resonance (SPR), Single Cycle Kinetics; conditions: KD ratio HRAS/KRAS, SPR, GDP-bound wild-type proteins
Sequence of GDP-bound HRAS wild-type protein (P01112 whole entry): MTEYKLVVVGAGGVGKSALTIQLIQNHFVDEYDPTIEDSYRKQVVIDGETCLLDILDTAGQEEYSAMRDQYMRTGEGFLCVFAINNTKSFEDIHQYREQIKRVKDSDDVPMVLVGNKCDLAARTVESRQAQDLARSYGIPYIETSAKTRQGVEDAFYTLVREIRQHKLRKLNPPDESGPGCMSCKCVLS

Sequence of GDP-bound NRAS wild-type protein (P01111 whole entry): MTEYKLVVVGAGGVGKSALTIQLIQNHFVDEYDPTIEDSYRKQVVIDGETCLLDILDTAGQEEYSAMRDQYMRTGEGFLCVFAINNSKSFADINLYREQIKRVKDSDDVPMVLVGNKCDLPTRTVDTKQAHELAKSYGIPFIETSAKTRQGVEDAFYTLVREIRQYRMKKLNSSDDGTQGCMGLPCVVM

Compound	NRAS/KRAS (ratio of KD value with respect to GDP-bound NRAS wild-type protein to KD value with respect to KRAS) [1]	HRAS/KRAS (ratio of KD value with respect to GDP-bound HRAS wild-type protein to KD value with respect to KRAS) [2]
CCC[C@H]1C(=O)N[C@@H]([C@@H](C)CC)C(=O)N(C)CC(=O)N(C)[C@H]2C/C=C\CCN(C2=O)[C@@H](Cc2ccc(C(F)(F)F)cc2)C(=O)N(C)CC(=O)N[C@@H](CCc2ccc(C(F)(F)F)c(Cl)c2)C(=O)N2CC3(CC3)C[C@H]2C(=O)NC2(CC(C)(C)C2)C(=O)N(C)[C@@H](CC(F)(F)F)C(=O)N(C)[C@H](C(=O)N(C)C)CC(=O)N1C [PP2985]	AA (a compound having 20 or more is denoted as AA)	A (a compound having 10 or more and less than 20 is denoted as A)
CCC[C@H]1C(=O)N[C@@H](C2CCCC2)C(=O)N(C)CC(=O)N(C)[C@H]2C/C=C\CCN(C2=O)[C@@H](Cc2ccc(C(F)(F)F)cc2)C(=O)N(C)CC(=O)N[C@@H](CCc2ccc(C(F)(F)F)c(Cl)c2)C(=O)N2CC3(CC3)C[C@H]2C(=O)NC2(CC(C)(C)C2)C(=O)N(C)[C@@H](C2CCCC2)C(=O)N(C)[C@H](C(=O)N(C)C)CC(=O)N1C [PP2986]	AA (a compound having 20 or more is denoted as AA)	A (a compound having 10 or more and less than 20 is denoted as A)
CCC[C@H]1C(=O)N[C@@H]([C@@H](C)CC)C(=O)N(C)CC(=O)N(C)[C@H]2C/C=C\CCN(C2=O)[C@@H](Cc2ccc(C(F)(F)F)cc2)C(=O)N(C)CC(=O)N[C@@H](CCc2ccc(C(F)(F)F)c(Cl)c2)C(=O)N2CC3(CC3)C[C@H]2C(=O)NC2(CC(C)(C)C2)C(=O)N(C)[C@@H](CC(C)C)C(=O)N(C)[C@H](C(=O)N(C)C)CC(=O)N1C [PP2987]	AA (a compound having 20 or more is denoted as AA)	A (a compound having 10 or more and less than 20 is denoted as A)
CCC[C@H]1C(=O)N[C@@H](C2CCCC2)C(=O)N(C)CC(=O)N(C)[C@H]2C/C=C\CCN(C2=O)[C@@H](Cc2ccc(C)cc2)C(=O)N(C)CC(=O)N[C@@H](CCc2cc(F)c(C(F)(F)F)c(F)c2)C(=O)N2C[C@H](OCC)C[C@H]2C(=O)NC2(CC(C)(C)C2)C(=O)N(C)[C@@H](C2CCCC2)C(=O)N(C)[C@H](C(=O)N(C)C)CC(=O)N1C [PP2988]	B (a compound having 3 or more and less than 10 is denoted as B)	B (a compound having 3 or more and less than 10 is denoted as B)
CCC[C@H]1C(=O)N[C@@H](C2CCCC2)C(=O)N(C)CC(=O)N(C)[C@H]2C/C=C\CCN(C2=O)[C@@H](Cc2ccc(C)cc2)C(=O)N(C)CC(=O)N[C@@H](CCc2cc(F)c(C(F)(F)F)c(F)c2)C(=O)N2C[C@H](OCC)C[C@H]2C(=O)NC2(CC(C)(C)C2)C(=O)N(C)[C@@H](CC(C)(C)C)C(=O)N(C)[C@H](C(=O)N(C)C)CC(=O)N1C [PP2989]	AA (a compound having 20 or more is denoted as AA)	A (a compound having 10 or more and less than 20 is denoted as A)
CCC[C@H]1C(=O)N[C@@H](C2CCCC2)C(=O)N(C)CC(=O)N(C)[C@H]2C/C=C\CCN(C2=O)[C@@H](Cc2ccc(C)cc2)C(=O)N(C)CC(=O)N[C@@H](CCc2ccc(C(F)(F)F)c(OC)c2)C(=O)N2C[C@H](OCC)C[C@H]2C(=O)NC2(CC(C)(C)C2)C(=O)N(C)[C@@H](C2CCCC2)C(=O)N(C)[C@H](C(=O)N(C)C)CC(=O)N1C [PP2992]	AA (a compound having 20 or more is denoted as AA)	A (a compound having 10 or more and less than 20 is denoted as A)
CCC[C@H]1C(=O)N[C@@H]([C@@H](C)CC)C(=O)N(C)CC(=O)N(C)[C@H]2C/C=C\CCN(C2=O)[C@@H](Cc2ccc(C)cc2)C(=O)N(C)CC(=O)N[C@@H](CCc2cc(F)c(C(F)(F)F)c(F)c2)C(=O)N2C[C@H](OCC)C[C@H]2C(=O)NC2(CC(C)(C)C2)C(=O)N(C)[C@@H](CC(F)(F)F)C(=O)N(C)[C@H](C(=O)N(C)C)CC(=O)N1C [PP2993]	A (a compound having 10 or more and less than 20 is denoted as A)	A (a compound having 10 or more and less than 20 is denoted as A)
CCC[C@H]1C(=O)N[C@@H](C2CCCC2)C(=O)N(C)CC(=O)N(C)[C@H]2C/C=C\CCN(C2=O)[C@@H](Cc2ccc(C)cc2)C(=O)N(C)CC(=O)N[C@@H](CCc2ccc(C(F)(F)F)c(OC)c2)C(=O)N2CC3(CC3)C[C@H]2C(=O)NC2(CC(C)(C)C2)C(=O)N(C)[C@@H](C2CCCC2)C(=O)N(C)[C@H](C(=O)N(C)C)CC(=O)N1C [PP2994]	AA (a compound having 20 or more is denoted as AA)	A (a compound having 10 or more and less than 20 is denoted as A)

Source: patent US20250230193A1, “CYCLIC COMPOUND HAVING SELECTIVE KRAS INHIBITORY EFFECT ON HRAS AND NRAS” (CHUGAI SEIYAKU KABUSHIKI KAISHA, priority 2022, published 2025)
